Data from patent US20230123889A1, “METHOD FOR DEGRADING BENZO(A)PYRENE WITH A HALOPHILIC BACTERIUM STRAIN OF STAPHYLOCOCCUS HAEMOLITICUS” (KING FAHD UNIVERSITY OF PETROLEUM AND MINERALS, priority 2021, published 2023).
Marks after values point to notes of the source that are not given here.

Legend:
Assay type in all cases: cell-based
[1] = system: Staphylococcus haemoliticus 10SBZ1A strain; test: Bacterial growth assessment (doubling time, CFU/ml) in the presence of BZP and various hydrocarbon substrates as carbon source
[2] = system: Staphylococcus haemoliticus 10SBZ1A strain; test: as above; settings: for Doubling time (dt, h): strain growing on BaP; for strain dt in the presence of substrate (FIG. 3): substrate as carbon source
Method: Bacterial growth assessment in the presence of BZP and various hydrocarbon molecules: effect of pH and salinity. To initiate these experiments, bacteria were pre-cultured in an LB rich medium, and around 5×10^5 colony forming units (CFU) of these bacteria were added to 50 ml BH medium containing 100 μmol BZP, unless otherwise stated. Non-polar substrates pyrene, phenanthrene, naphthalene and anthracene were dissolved in dimethyl sulfoxide (DMSO) [0.1 g/ml], while the water-soluble substrates SALC and CATC were dissolved directly in BH medium. The aliphatic compounds were directly added to the medium. […] Growth was monitored as a measure of CFU/ml.
Bacterial doubling time (dt) was calculated by fitting growth curves data points into […] equation, where Q is the bacterial CFU ml^−1 at time t, Qo is the initial bacterial count in the culture, and k is the growth rate. The growth rate (k) was then used to compute dt values according to the equation: dt=ln(2)/k (in days). Values were calculated with Microsoft Excel software (Version). All experiments were carried out in duplicate.

[3] = system: Staphylococcus haemoliticus 10SBZ1A strain; test: Quantification of BZP and substrate utilization in bacterial culture (GC-MS); settings: control without bacteria
Method: Quantification of BZP and substrate utilization. The remaining BZP was quantified in a bacterial culture of 100 ml containing 20 μmol BZP for 18 days, according to the protocol reported by and incorporated by reference to Budiyanto, F, et al. (2017). Characterization of halophilic bacteria capable of efficiently biodegrading the high molecular weight polycyclic aromatic hydrocarbon pyrene. Environmental Engineering Science. June 2018.616-626.
A sample corresponding to one culture flask of 100 ml, was collected every 5 days and subjected to extraction as follows. The samples were sonicated for 30 min and then extracted twice with ethyl acetate (50 ml). The combined organic layers were dehydrated with calcium chloride and then dried under vacuum. Samples were re-dissolved in 500 μl of chloroform prior to analysis by gas chromatography-mass spectrometry (GC-MS). […] Values of quantified BZP were fitted in the exponential decay equation, Qt=Qoe^−kt to obtain the biodegradation rate constant (k); see Lu, J, C Guo, et al. (2014). […]
The mixture was then diluted with 1.0 ml of chloroform prior to its analysis by GC-MS. […] Values of quantified BZP were fitted in the exponential decay equation, Qt=Qoe^−kt to obtain the biodegradation rate constant (k); see Lu et al., International Biodeterioration & Biodegradation 87: 75-80.

`c1ccc2c(c1)cc1ccc3cccc4ccc2c1c34` [BZP, benzo(a)pyrene] was tested, and the “Doubling time (dt, h)” value ([1]; Temperature 37° C., strain growing on BaP) was 21+1 h, the range of dt ([1]; temperatures 35, 37, 40° C.) was 21 to 29 h and the growth ([2]; 0% NaCl) was “No growth”. The doubling time ([2]; 4-200 μmol of BZP as sole source of carbon) was 2 to 10 h, the growth ([2]; 20% NaCl) was “No growth” and the maximum count ([2]; BZP 20 μmol.1^−1) was > 10^9 CFU ml^−1. The “time at which the maximum growth was achieved” value ([2]; BZP 400 μmol.1^−1) was 15 days, the dt values ([2]; BZP 1 to 100 μmol.1^1) was 15 to 20 h and the maximum count ([2]; BZP 5 to 20 μmol.1^−1) was 10^7-10^8 CFU/ml. For the same molecule, the “time to reach maximum growth” value ([2]; BZP 5 to 20 μmol.1^−1) was 6 to 8 days, the “dt values relative to those at 1 to 100 μmol.1^1” value ([2]; BZP 200 and 400 μmol.1^−1) was “almost doubled” and the “Doubling time (dt, h)” value ([2]; Salinity 5% NaCl) was 44 ± 7 h. For the same molecule, the “Doubling time (dt, h)” value ([2]; Salinity 5% NaCl, listed as benzo(a)pyrene) was 46.8 ± 7.4 h, the “Doubling time (dt, h)” value ([2]; Salinity 10% NaCl) was 21 ± 1 h and the “Doubling time (dt, h)” value ([2]; Salinity 10% NaCl, listed as benzo(a)pyrene) was 21.5 ± 1.0 h. For the same molecule, the “Doubling time (dt, h)” value ([2]; Salinity 15% NaCl) was 156 ± 73 h, the “Doubling time (dt, h)” value ([2]; Salinity 15% NaCl, listed as benzo(a)pyrene) was 156 ± 74 h and the “Doubling time (dt, h)” value ([2]; Temperature 35° C.) was 28.5 ± 2.4^b h. The “Doubling time (dt, h)” value ([2]; Temperature 37° C.) was 21.5 ± 1.0^b h, the “Doubling time (dt, h)” value ([2]; Temperature 40° C.) was 24.5 ± 1.0 h and the “growth at other pH values” ([2]; pH 5, 6, 8 and 9) was “slow”. For the same molecule, the dt values ([2]; pH 7) was 21.49±0.98, the “Doubling time (dt, h)” value ([2]; pH 7) was 21.5 ± 1.0 h and the “strain dt in the presence of substrate (FIG. 3)” value (shortened to “strain dt in the presence”) [2] was “around 42 h”. For the same molecule, the abiotic degradation [3] was “Around 20%”.
For `c1ccc2cc3ccccc3cc2c1` [anthracene], the “strain dt in the presence” value [2] was 30 to 33 h.
`OCC(O)CO` [glycerol] was tested, and the “strain dt in the presence” value [2] was “around 11 hours”.
With `c1cc2ccc3cccc4ccc(c1)c2c34` [pyrene] the “strain dt in the presence” value [2] was “similar”.
